Tests used:
[1] = molecular target: T1, human uPA (Homo sapiens, UniProt P00749); test: in vitro uPA chromogenic substrate assay (glutaryl-glycyl-arginyl-p-nitroanilide, absorbance 405nm); type: biochemical; settings: for inhibition at 20 µM: read-out: % INHIBITION OF uPA ACTIVITY 20 mM INHIBITOR; for inhibition at 100 µM: read-out: % INHIBITION OF uPA ACTIVITY 100 mM INHIBITOR
T1 construct: purchased
Description: The values for the relative inhibitions contained in Table III are obtained by the following procedure.
An in vitro assay employs a commercially available synthetic chromogenic substrate, glutaryl-glycyl-arginyl-p-nitroanilide, and a commercially available human uPA. The uPA catalyzes the hydrolysis of the bond between the arginyl and p-nitroanilide moieties. The p-nitroaniline released upon hydrolysis of the substrate absorbs light at a wavelength of 405nm. The enzymatic activity is quantitated as a function of the increase in the absorbance of the solution at 405nm as measured with a spectrophotometer.
In order to obtain the data, stock solutions of the amiloride-related pyrazine derivative compounds were included in the assays, and the release of p-nitroaniline as followed by the change in absorbance at 405nm of the reaction mixture was compared to a control reaction mixture in which no amiloride-related pyrazine derivative compound was present.

[2] = molecular target: thrombin (Homo sapiens, UniProt P00734); settings: in vitro, result in words; cited from earlier work
[3] = molecular target: plasmin (Homo sapiens, UniProt P00747); settings: in vitro, result in words; cited from earlier work
[4] = molecular target: plasma kallikrein (Homo sapiens, UniProt P03952); settings: in vitro, result in words; cited from earlier work
[5] = system: Corneal Vessels; test: rabbit corneal neovascularization model (PGE1 slow release pellet, amiloride agarose pellet implant); type: in vivo; settings: result in words
Description: A series of experiments have been conducted employing a rabbit model.

[6] = system: circulating cancer cells; settings: continuously administered orally to rats, result in words; cited from earlier work
[7] = molecular target: tissue-type plasminogen activator (tPA) (Homo sapiens, UniProt P00750); settings: in vitro, result in words; cited from earlier work
Sequence of tissue-type plasminogen activator (tPA) (P00750 36-562, species assumed): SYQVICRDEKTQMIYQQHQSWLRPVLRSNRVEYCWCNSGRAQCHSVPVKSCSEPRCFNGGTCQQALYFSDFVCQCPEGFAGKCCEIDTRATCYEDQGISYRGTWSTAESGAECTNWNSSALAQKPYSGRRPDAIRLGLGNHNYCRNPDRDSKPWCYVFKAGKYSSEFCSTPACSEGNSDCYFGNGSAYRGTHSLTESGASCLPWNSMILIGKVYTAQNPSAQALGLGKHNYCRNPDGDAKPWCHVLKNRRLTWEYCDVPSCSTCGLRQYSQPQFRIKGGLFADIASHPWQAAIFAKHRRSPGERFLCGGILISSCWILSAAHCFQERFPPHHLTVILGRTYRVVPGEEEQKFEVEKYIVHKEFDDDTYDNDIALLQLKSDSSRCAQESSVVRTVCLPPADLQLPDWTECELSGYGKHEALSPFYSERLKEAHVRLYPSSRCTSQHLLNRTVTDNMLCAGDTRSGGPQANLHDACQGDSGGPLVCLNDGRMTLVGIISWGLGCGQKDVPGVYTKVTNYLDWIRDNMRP

Sequence of plasmin (P00747 97-580): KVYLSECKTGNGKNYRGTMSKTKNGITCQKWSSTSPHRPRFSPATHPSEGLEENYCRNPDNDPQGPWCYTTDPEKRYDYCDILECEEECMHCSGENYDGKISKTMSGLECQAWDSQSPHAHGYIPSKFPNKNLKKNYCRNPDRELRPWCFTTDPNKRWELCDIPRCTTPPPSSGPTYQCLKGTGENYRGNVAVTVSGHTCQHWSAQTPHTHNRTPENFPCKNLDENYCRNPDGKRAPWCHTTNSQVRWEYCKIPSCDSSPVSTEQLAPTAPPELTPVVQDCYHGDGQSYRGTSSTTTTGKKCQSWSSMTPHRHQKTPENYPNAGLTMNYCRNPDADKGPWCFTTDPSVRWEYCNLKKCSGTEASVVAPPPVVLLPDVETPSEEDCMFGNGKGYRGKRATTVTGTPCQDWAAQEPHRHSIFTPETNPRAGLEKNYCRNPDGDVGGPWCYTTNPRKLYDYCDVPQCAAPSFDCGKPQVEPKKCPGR
Sequence of plasmin (P00747 581-810): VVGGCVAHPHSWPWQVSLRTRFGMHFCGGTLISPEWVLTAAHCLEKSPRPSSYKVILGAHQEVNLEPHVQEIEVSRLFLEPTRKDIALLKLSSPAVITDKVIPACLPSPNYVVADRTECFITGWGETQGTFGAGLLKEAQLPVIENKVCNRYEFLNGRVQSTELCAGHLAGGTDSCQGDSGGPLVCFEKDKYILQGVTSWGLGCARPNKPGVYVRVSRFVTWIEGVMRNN
Sequence of plasma kallikrein (P03952 20-638, species assumed): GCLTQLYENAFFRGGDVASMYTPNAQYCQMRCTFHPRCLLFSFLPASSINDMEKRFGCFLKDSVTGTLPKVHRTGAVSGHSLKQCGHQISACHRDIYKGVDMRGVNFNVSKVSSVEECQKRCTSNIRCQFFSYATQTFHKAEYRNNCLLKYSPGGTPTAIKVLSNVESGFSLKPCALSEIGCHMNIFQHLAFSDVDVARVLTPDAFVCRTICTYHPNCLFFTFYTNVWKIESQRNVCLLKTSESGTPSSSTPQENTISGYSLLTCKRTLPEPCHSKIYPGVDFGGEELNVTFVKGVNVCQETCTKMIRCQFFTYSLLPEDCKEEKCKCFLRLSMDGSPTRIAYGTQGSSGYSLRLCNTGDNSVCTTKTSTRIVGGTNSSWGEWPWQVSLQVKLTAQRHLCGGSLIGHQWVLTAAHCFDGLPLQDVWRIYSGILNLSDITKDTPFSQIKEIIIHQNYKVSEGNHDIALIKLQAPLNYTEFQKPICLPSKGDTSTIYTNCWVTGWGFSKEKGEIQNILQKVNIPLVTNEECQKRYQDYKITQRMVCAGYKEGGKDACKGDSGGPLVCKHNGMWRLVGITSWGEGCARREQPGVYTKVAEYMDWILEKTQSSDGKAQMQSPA

SMILES	inhibition at 20 µM [1] [%]	inhibition at 100 µM [1] [%]	further results
CN(CC(=O)N=C(N)N)c1nc(N)c(C(=O)N=C(N)N)nc1Cl [MGCMA, 3-amino-6-chloro-5-[N-methyl-N-(guanidinocarbonylmethylamino)]-N(diaminomethylene)pyrazine carboxamide]	29.1	43	–
NC(N)=NC(=O)c1nc(Cl)c(N2CCCCCC2)nc1N [HMA, 3-amino-5-(1-homopiperidinyl)-6--chloro-N-(diaminomethylene)pyrazinecarboxamide]	51.1	77	–
NC(=Nc1ccccc1)NC(=O)c1nc(Cl)c(N)nc1N [PHENAMIL, 3,5-diamino-6-chloro-N--(phenylaminoaminomethylene)pyrazinecarboxamide]	1.7	5.5	–
NC(=NCc1ccccc1)NC(=O)c1nc(Cl)c(N)nc1N [BENZAMIL, 3,5-diamino-6--chloro-N-(benzylaminoaminomethylene)pyrazinecarboxamide]	1.2	7.7	–
N=C(N)NC(=O)c1nc(Cl)c(N)nc1N [Amiloride, 3,5-diamino-6-chloro-N--(diaminomethylene)pyrazinecarboxamide]	–	–	inhibition of thrombin [2]: does not inhibit; inhibition of plasmin [3]: does not inhibit; inhibition of plasma kallikrein [4]: does not inhibit; inhibition of neovascularization ([5]; amiloride-HCl·2H₂O agarose pellets in rabbit cornea): inhibited neovascularization in a dose dependent manner; reversal of neovascularization already produced [5]: reverse a portion of the neovascularization that had already been produced; inhibition of metastasis into the lung [6]: inhibited the metastasis of circulating cancer cells into the lung of the rat; inhibition of tissue-type plasminogen activator (tPA) [7]: does not inhibit
CCN(c1nc(N)c(C(=O)N=C(N)N)nc1Cl)C(C)C [EIPA, 3-amino-5-(N-ethyl-N--isopropylamino)-6-chloro-N-(diaminomethylene)pyrazinecarboxamide]	28.3	56	–
NC(N)=NC(=O)c1nc(I)c(N)nc1N [Compound 6-IA, 3,5-diamino-6-iodo-N-(diaminomethylene)pyrazinecarboxamide]	–	–	% INHIBITION OF uPA ACTIVITY 20 mM INHIBITOR ([1]; 20 mM INHIBITOR): 64.4%; % INHIBITION OF uPA ACTIVITY 100 mM INHIBITOR ([1]; 100 mM INHIBITOR): 83.9%
NC(N)=NNC(=O)c1nc(Cl)c(N)nc1N [MK-875, 3,5-diamino-6-chloro-N²--(diaminomethylene)pyrazinecarbonyl hydrazide]	1.9	7.3	–
Cc1ccc(CNC(=N)NC(=O)c2nc(Cl)c(NCc3ccc(Cl)cc3)nc2N)c(C)c1 [CBDMB, 3-amino-5-(N-4-chlorobenzylamino)-6-chloro-N-[(2,4-dimethylbenzyl)aminoaminomethylene]pyrazinecarboxamide]	41.7	63.4	–

The next lines start with results.

inhibition at 20 µM [1] [%]	inhibition at 100 µM [1] [%]	SMILES	further results
65.6	69.9	NC(N)=NC(=O)c1nc(Br)c(N)nc1N [Compound 6-BrA, 3,5-diamino-6-bromo-N-(diaminomethylene)pyrazinecarboxamide]	–
1	7.7	NC(N)=NC(=O)c1nc(Br)cnc1N [Compound 6-Br-5-HA, 3-amino-6-bromo-N--(diaminomethylene)pyrazinecarboxamide]	–
41.1	48.3	CN(C)c1nc(N)c(C(=O)N=C(N)N)nc1Cl [DMA, 3-amino-5-dimethylamino-6-chloro-N--(diaminomethylene)pyrazinecarboxamide]	–
7.1	27.9	NC(N)=NC(=O)c1nc(F)c(N)nc1N [Compound 6-FA, 3,5-diamino-6-fluoro-N-(diaminomethylene)pyrazinecarboxamide]	–
18.7	57.3	CC(C)CN(C)c1nc(N)c(C(=O)N=C(N)N)nc1Cl [MIBA, 3-amino--5-(N-methyl-N-isobutylamino)-6-chloro-N-(diaminomethylene)pyrazinecarboxamide]	–
5	20.7	NC(N)=NC(=O)c1nc(Cl)c(Cl)nc1N [Compound 5-ClA, 3--amino-5,6-dichloro-N-(diaminomethylene)pyrazinecarboxamide]	–
2.1	11.1	NC(N)=NC(=O)c1nccnc1N [5,6-HA, 3-amino-N-(diaminomethylene)pyrazinecarboxamide]	–
40.3	73.1	CN(C)c1nc(N)c(C(=O)N=C(N)N)nc1I [IDMA, 3-amino-5-(N,N-dimethylamino)-6-iodo-N--(diaminomethylene)pyrazinecarboxamide]	–
15.3	38.2	NC(N)=NC(=O)c1ncc(N)nc1N [Compound 6-HA, 3,5-diamino-N-(diaminomethylene)pyrazinecarboxamide]	–
